Measured values reported in ChEMBL document CHEMBL6109159, “Discovery of a Potent and Selective Protein Arginine Methyltransferase 5 (PRMT5) PROTAC Degrader” (J Med Chem, 2025).
Active and inactive are the calls of the source. The calls are words filed in the database; no cut-off is given here.

Key:
MDA-MB-468 [1] = assay: Cytotoxicity against human MDA-MB-468 cells assessed as cell viability measured after 7 days by CCK-8 assay; format: functional; conditions: MDA-MB-468, 168 h, time 7 day
[2] = target: T1, von Hippel-Lindau disease tumor suppressor/Protein arginine N-methyltransferase 5 (Homo sapiens, UniProt O14744+P40337); assay: PROTAC activity at PRMT5/VHL in human MDA-MB-468 cells assessed as degradation measured at 0.5 uM after 72 hrs by Western blot analysis; format: cell-based
T1 sequence (O14744 whole entry, looked up): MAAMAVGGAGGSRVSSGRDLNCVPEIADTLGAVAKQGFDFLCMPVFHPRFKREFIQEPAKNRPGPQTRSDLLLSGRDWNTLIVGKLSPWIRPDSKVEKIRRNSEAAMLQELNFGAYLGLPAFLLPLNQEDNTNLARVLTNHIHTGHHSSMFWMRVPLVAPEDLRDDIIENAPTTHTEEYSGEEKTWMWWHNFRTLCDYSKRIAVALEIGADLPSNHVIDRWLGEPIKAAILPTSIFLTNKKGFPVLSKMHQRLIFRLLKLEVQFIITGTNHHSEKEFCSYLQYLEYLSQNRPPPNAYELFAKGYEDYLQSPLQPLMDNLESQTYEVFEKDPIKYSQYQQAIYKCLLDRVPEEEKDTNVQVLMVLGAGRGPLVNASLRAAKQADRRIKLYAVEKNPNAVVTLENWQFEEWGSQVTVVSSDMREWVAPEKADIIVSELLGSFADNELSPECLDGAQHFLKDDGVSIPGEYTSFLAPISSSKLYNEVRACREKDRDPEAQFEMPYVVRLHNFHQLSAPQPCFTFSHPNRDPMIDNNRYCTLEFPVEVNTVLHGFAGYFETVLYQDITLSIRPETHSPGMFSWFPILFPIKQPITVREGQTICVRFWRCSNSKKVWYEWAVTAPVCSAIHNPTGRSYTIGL
T1 sequence (P40337 whole entry, looked up): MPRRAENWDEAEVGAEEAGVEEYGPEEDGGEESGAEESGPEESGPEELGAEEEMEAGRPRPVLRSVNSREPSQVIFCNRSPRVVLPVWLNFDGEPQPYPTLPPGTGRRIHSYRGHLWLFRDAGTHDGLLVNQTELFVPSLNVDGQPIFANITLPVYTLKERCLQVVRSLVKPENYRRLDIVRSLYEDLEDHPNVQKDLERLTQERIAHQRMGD

[3] = target: T1, von Hippel-Lindau disease tumor suppressor/Protein arginine N-methyltransferase 5; assay: PROTAC activity at PRMT5/VHL in human MDA-MB-468 cells assessed as degradation measured at 5 uM after 72 hrs by Western blot analysis; format: cell-based
[4] = target: T2, von Hippel-Lindau disease tumor suppressor/Methylosome protein WDR77 (Homo sapiens, UniProt Q9BQA1+P40337); assay: PROTAC activity at MEP50/VHL in human MDA-MB-468 cells assessed as degradation measured at 0.5 uM after 72 hrs by Western blot analysis; format: cell-based
T2 sequence (P40337 whole entry, looked up): as above
T2 sequence (Q9BQA1 whole entry, looked up): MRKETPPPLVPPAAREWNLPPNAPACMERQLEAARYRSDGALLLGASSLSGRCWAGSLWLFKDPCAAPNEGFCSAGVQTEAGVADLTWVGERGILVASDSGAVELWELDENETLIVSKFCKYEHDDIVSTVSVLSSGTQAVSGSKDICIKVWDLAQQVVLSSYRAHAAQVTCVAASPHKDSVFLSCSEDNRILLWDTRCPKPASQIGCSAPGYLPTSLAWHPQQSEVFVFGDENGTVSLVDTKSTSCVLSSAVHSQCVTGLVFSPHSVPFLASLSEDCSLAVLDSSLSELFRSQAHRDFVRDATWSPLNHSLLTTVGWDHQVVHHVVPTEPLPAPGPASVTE

[5] = target: T2, von Hippel-Lindau disease tumor suppressor/Methylosome protein WDR77; assay: PROTAC activity at MEP50/VHL in human PC-3 cells assessed as degradation at 0.5 to 5 uM after 7 hrs by Western blot analysis; format: cell-based; conditions: dose 0.5-5 µM
[6] = target: T1, von Hippel-Lindau disease tumor suppressor/Protein arginine N-methyltransferase 5; assay: PROTAC activity at PRMT5/VHL in human PC-3 cells assessed as degradation at 0.5 to 5 uM after 7 hrs by Western blot analysis; format: cell-based; conditions: dose 0.5-5 µM
[7] = target: T2, von Hippel-Lindau disease tumor suppressor/Methylosome protein WDR77; assay: PROTAC activity at MEP50/VHL in human MDA-MB-468 cells assessed as degradation measured at 5 uM after 72 hrs by Western blot analysis; format: cell-based
[8] = target: T1, von Hippel-Lindau disease tumor suppressor/Protein arginine N-methyltransferase 5; assay: PROTAC activity at PRMT5/VHL in human MCF7 cells assessed as degradation at 5 uM after 3 days by Western blot analysis; format: cell-based; conditions: time 3.0 day
[9] = target: T2, von Hippel-Lindau disease tumor suppressor/Methylosome protein WDR77; assay: PROTAC activity at MEP50/VHL in human MDA-MB-468 cells assessed as maximal degradation at 5 uM measured after 72 hrs by Western blot analysis relative to control; format: cell-based
[10] = target: T2, von Hippel-Lindau disease tumor suppressor/Methylosome protein WDR77; assay: PROTAC activity at MEP50/VHL in human MCF7 cells assessed as degradation at 0.5 uM after 3 days by Western blot analysis; format: cell-based; conditions: time 3.0 day
[11] = target: T1, von Hippel-Lindau disease tumor suppressor/Protein arginine N-methyltransferase 5; assay: PROTAC activity at PRMT5/VHL in human MDA-MB-468 cells assessed as degradation at 2 uM measured up to 12 hrs by Western blot analysis; format: cell-based
[12] = target: Protein arginine N-methyltransferase 5 (Homo sapiens, UniProt O14744); assay: Inhibition of PRMT5 (unknown origin) using S-adenosylmethionine (SAM) using as substrate preincubated for 30 mins followed by substrate addition measured after 60 mins by microplate reader
Protein arginine N-methyltransferase 5, sequence (O14744 whole entry): as the sequence (O14744 whole entry, looked up) above

[13] = target: T2, von Hippel-Lindau disease tumor suppressor/Methylosome protein WDR77; assay: PROTAC activity at MEP50/VHL in human MCF7 cells assessed as degradation at 5 uM after 3 days by Western blot analysis; format: cell-based; conditions: time 3.0 day
[14] = target: T1, von Hippel-Lindau disease tumor suppressor/Protein arginine N-methyltransferase 5; assay: PROTAC activity at PRMT5/VHL in human MCF7 cells assessed as degradation at 0.5 uM after 3 days by Western blot analysis; format: cell-based; conditions: time 3.0 day
[15] = target: T1, von Hippel-Lindau disease tumor suppressor/Protein arginine N-methyltransferase 5; assay: PROTAC activity at PRMT5/VHL in human MDA-MB-468 cells assessed as maximal degradation at 5 uM measured after 72 hrs by Western blot analysis relative to control; format: cell-based
[16] = target: T2, von Hippel-Lindau disease tumor suppressor/Methylosome protein WDR77; assay: PROTAC activity at MEP50/VHL in human MDA-MB-468 cells assessed as degradation at 2 uM measured up to 48 hrs by Western blot analysis; format: cell-based
MDA-MB-468 [17] = assay: Inhibition of sDMA (symmetric dimethylarginine) level in human MDA-MB-468 cells at 5 uM measured after 72 hrs by Western blot analysis; format: functional, cell-based
MDA-MB-468 [18] = assay: Inhibition of sDMA (symmetric dimethylarginine) level in human MDA-MB-468 cells at 0.5 uM measured after 72 hrs by Western blot analysis; format: functional, cell-based
MDA-MB-468 [19] = assay: Inhibition of sDMA (symmetric dimethylarginine) level in human MDA-MB-468 cells at 2 uM measured after 7 days by Western blot analysis; format: functional, cell-based; conditions: time 7.0 day
MCF-10A [20] = assay: PROTAC activity at MEP50/VHL in human MCF-10A cells assessed as degradation at 0.5 to 5 uM after 3 days by Western blot analysis; format: cell-based; conditions: dose 0.5-5 µM, time 3.0 day
[21] = target: T1, von Hippel-Lindau disease tumor suppressor/Protein arginine N-methyltransferase 5; assay: PROTAC activity at PRMT5/VHL in human MCF-10A cells assessed as degradation at 0.5 to 5 uM after 3 days by Western blot analysis; format: cell-based; conditions: dose 0.5-5 µM, time 3.0 day
[22] = PROTAC activity at PRMT5/VHL in human PNT2 cells assessed as degradation at 0.5 to 5 uM after 3 days by Western blot analysis; conditions: dose 0.5-5 µM, time 3.0 day
[23] = target: T2, von Hippel-Lindau disease tumor suppressor/Methylosome protein WDR77; assay: PROTAC activity at MEP50/VHL in human PNT2 cells assessed as degradation at 0.5 to 5 uM after 3 days by Western blot analysis; format: cell-based; conditions: dose 0.5-5 µM, time 3.0 day
MCF-10A [24] = assay: Cytotoxicity against human MCF10A cells assessed as cell viability up to 15 uM measured after 5 days by CCK-8 assay; format: toxicity, cell-based; conditions: 120 h, time 5 day
[25] = target: T1, von Hippel-Lindau disease tumor suppressor/Protein arginine N-methyltransferase 5; assay: PROTAC activity at PRMT5/VHL in human MDA-MB-468 cells assessed as degradation measured at 0.5 to 5 uM after 24 hrs by Western blot analysis; format: cell-based; conditions: dose 0.5-5 µM
[26] = target: T2, von Hippel-Lindau disease tumor suppressor/Methylosome protein WDR77; assay: PROTAC activity at MEP50/VHL in human MDA-MB-468 cells assessed as degradation measured at 0.5 to 5 uM after 24 hrs by Western blot analysis; format: cell-based; conditions: dose 0.5-5 µM

Structure (SMILES): Cc1ncsc1-c1ccc([C@H](CC(=O)NCCOCCOCCOCCOCCOCCC(=O)N2CCC(Nc3cc(C(=O)NC[C@H](O)CN4CCCCC4)ncn3)CC2)NC(=O)[C@@H]2C[C@@H](O)CN2C(=O)[C@@H](NC(=O)C2(F)CC2)C(C)(C)C)cc1
- GI50 (MDA-MB-468 [1]): > 20 µM
- Activity [2]: inactive
- Activity [3]: inactive
- Activity [4]: inactive
- Activity [5]: inactive
- Activity [6]: inactive
- Activity [7]: inactive

Structure (SMILES): Cc1ncsc1-c1ccc([C@H](C)NC(=O)[C@@H]2C[C@@H](O)CN2C(=O)[C@@H](NC(=O)COCCOCCOCCOCCOCC(=O)N2CC(Nc3cc(C(=O)NC[C@H](O)CN4CCc5ccccc5C4)ncn3)C2)C(C)(C)C)cc1
- Activity [8]: Active
- Activity [9]: 50%
- GI50 (MDA-MB-468 [1]): > 20 µM
- Activity [10]: Active
- Activity [11]: Active
- IC50 [12]: 0.69 µM
- Activity [13]: Active
- Activity [14]: Active
- Activity [15]: 50%
- Activity [16]: inactive

Structure (SMILES): Cc1ncsc1-c1ccc([C@H](CC(=O)NCCOCCOCCOCCOCCOCCC(=O)N2CCC(Nc3cc(C(=O)NC[C@H](O)CN4CCc5ccccc5C4)ncn3)CC2)NC(=O)[C@@H]2C[C@H](O)CN2C(=O)[C@@H](NC(=O)C2(F)CC2)C(C)(C)C)cc1
- GI50 (MDA-MB-468 [1]): 9.9 µM
- Activity [2]: inactive
- Activity [3]: inactive
- Activity [4]: inactive
- Activity [5]: inactive
- Activity [6]: inactive
- Activity [7]: inactive

Structure (SMILES): O=C(NC[C@H](O)CN1CCc2ccccc2C1)c1cc(NC2COC2)ncn1
- inhibition (MDA-MB-468 [17]): Active
- GI50 (MDA-MB-468 [1]): 0.23 µM
- inhibition (MDA-MB-468 [18]): Active
- inhibition (MDA-MB-468 [19]): Active; Compound Inhibited Greater Extent Than Ms4322
- Activity [2]: inactive
- Activity [3]: inactive
- Activity [4]: inactive
- Activity [7]: inactive

Structure (SMILES): O=C1CCC(N2C(=O)c3ccc(NCCCCCCCCCC(=O)N4CCC(Nc5cc(C(=O)NC[C@H](O)CN6CCc7ccccc7C6)ncn5)CC4)cc3C2=O)C(=O)N1 (some centres undefined)
- Activity (MCF-10A [20]): 50%
- Activity [21]: 50%
- Activity [22]: 50%
- Activity [23]: 50%
- Activity (MCF-10A [24]): Toxic
- Activity [25]: inactive
- Activity [26]: inactive
